Reference: patent US20170216297A1, “EFFICIENT INHIBITION OF HSP27” (TECHNISCHE UNIVERSITAET DRESDEN, priority 2014, published 2017)

biological target: HSP27 (Homo sapiens, UniProt P04792); experiment: Capillary electrophoresis of the CS protein precipitates (precipitated citrate synthase as measure of HSP27 inhibition); assay type: biochemical; settings: 10 μmol/L; 43° C. for 70 minutes; 750 μmol/L BVDU set at 1
Procedure: (§1) Since the heat-denatured protein aggregates of the citrate synthase from Example 1 are not water-soluble, these can be separated completely from the supernatant by means of centrifugation at room temperature at 16,000×g, 10 min. By using capillary electrophoresis, the compositions of the separated precipitates can be shown and quantified. The relative quantity of protein of precipitated citrate synthase serves as a measure of the efficacy of the test substances.
(§2) In each case, 481 nmol/L HSP27 and 1.44 μmol/L citrate synthase in 40 mmol/L HEPES buffer, pH 7.4, were employed. The relative quantity of protein of the precipitated citrate synthase in each case was normalized using a defined quantity of BSA as internal standard. The relative quantity of protein that precipitated when using 750 μmol/L BVDU was set at 1. The other test substances (2 representatives of phenothiazine derivatives of general formula (V), 2 representatives of purine derivatives of formula (I) or (II)) were each employed at a concentration of 10 μmol/L.
as §1, with “Example 2” for “Example 1”
as §2, with “nM” for “nmol/L”, “thymine” for “purine”, “were” for “were each”, “μmol/L in each case.” for “μmol/L.”
Otherwise, the experiments were performed as described above: […]

HSP27, sequence (P04792 whole entry): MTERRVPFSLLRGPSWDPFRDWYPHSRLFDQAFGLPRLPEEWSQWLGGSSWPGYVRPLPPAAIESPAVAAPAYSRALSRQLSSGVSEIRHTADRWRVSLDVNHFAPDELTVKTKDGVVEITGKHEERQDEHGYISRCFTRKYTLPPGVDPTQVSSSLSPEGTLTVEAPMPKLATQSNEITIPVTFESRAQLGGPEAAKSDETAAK

Rel. quantity of protein prec. CS | SMILES
0.68 | Cc1cn(CCCCNC(=O)C2c3ccccc3Oc3ccccc32)c(=O)[nH]c1=O [N-[4-(5-Methyl-2,4-dioxo-3H-pyrimidin-1-yl)butyl]-9H-xanthene-9-carboxamide]
0.88 | O=C(Cc1ccc(-c2ccccc2)cc1)NC/C=C\Cn1ccc(=O)[nH]c1=O [N-[(2Z)-4-(2,4-Dioxo-3H-pyrimidin-1-yl)but-2-en-1-yl]-2-(4-phenylphenyl)acetamide]
0.85 | O=C(NC/C=C\Cn1ccc(=O)[nH]c1=O)C1c2ccccc2OC2C=CC=CC21 (centres unmarked) [N-[(2Z)-4-(2,4-Dioxo-3H-pyrimidin-1-yl)but-2-en-1-yl]-9,9a-dihydro-4aH-xanthene-9-carboxamide]
0.82 | Cc1cn(C/C=C\CNC(=O)C(c2ccccc2)c2ccccc2)c(=O)[nH]c1=O [N-[(2Z)-4-(5-Methyl-2,4-dioxo-3H-pyrimidin-1-yl)but-2-en-1-yl]-2,2-diphenylacetamide]
0.81 | Cc1cn(C/C=C\CNC(=O)Cc2cccc3ccccc23)c(=O)[nH]c1=O [N-[(2Z)-4-(5-Methyl-2,4-dioxo-3H-pyrimidin-1-yl)but-2-en-1-yl]-2-(naphthalen-1-yl)acetamide]
0.83 | Cc1cn(C/C=C\CNC(=O)Cc2ccc3ccccc3c2)c(=O)[nH]c1=O [N-[(2Z)-4-(5-Methyl-2,4-dioxo-3H-pyrimidin-1-yl)but-2-en-1-yl]-2-(naphthalen-2-yl)acetamide]
0.86 | Cc1cn(C/C=C\CNC(=O)C2c3ccccc3-c3ccccc32)c(=O)[nH]c1=O [N-[(2Z)-4-(5-Methyl-2,4-dioxo-3H-pyrimidin-1-yl)but-2-en-1-yl]-9H-fluorene-9-carboxamide]
0.78 | Cc1cn(C/C=C\CNC(=O)c2cccc3ccccc23)c(=O)[nH]c1=O [N-[(2Z)-4-(5-Methyl-2,4-dioxo-3H-pyrimidin-1-yl)but-2-en-1-yl]naphthalene-1-carboxamide]

The remaining lines, values behind:

SMILES | Rel. quantity of protein prec. CS
Cc1cn(C2C[C@H](n3cc(-c4cccc(Br)c4)nn3)[C@@H](CO)O2)c(=O)[nH]c1=O (stereo partly drawn) [1-[(4S,5S)-4-[4-(3-Bromophenyl)-1H-1,2,3-triazol-1-yl]-5-(hydroxymethyl)oxolan-2-yl]-5-methyl-1,2,3,4-tetrahydropyrimidine-2,4-dione] | 0.81
Cc1cn(C2C[C@H](n3cc(-c4ccc(Br)cc4)nn3)[C@@H](CO)O2)c(=O)[nH]c1=O (stereo partly drawn) [1-[(4S,5S)-4-[4-(4-Bromophenyl)-1,2,3-triazol-1-yl]-5-(hydroxymethyl)oxolan-2-yl]-5-methyl-3H-pyrimidine-2,4-dione] | 0.64
COc1ccc(-c2cn([C@H]3CC(n4cc(C)c(=O)[nH]c4=O)O[C@@H]3CO)nn2)cc1 (stereo partly drawn) [1-[(4S,5S)-5-(Hydroxymethyl)-4-[4-(4-methoxyphenyl)-1,2,3-triazol-1-yl]oxolan-2-yl]-5-methyl-3H-pyrimidine-2,4-dione] | 0.75
CCCCc1cn([C@H]2C[C@H](n3cc(C)c(=O)[nH]c3=O)O[C@@H]2CO)nn1 [3′-(4-Butyl-1H-1,2,3-triazol-1-yl)-3′-deoxythymidine] | 0.76
CCCCCc1cn([C@H]2C[C@H](n3cc(C)c(=O)[nH]c3=O)O[C@@H]2CO)nn1 [3′-Deoxy-3′-(4-pentyl-1H-1,2,3-triazol-1-yl)thymidine] | 0.70
Cc1cn([C@H]2C[C@H](n3cc(-c4ccccc4)nn3)[C@@H](CO)O2)c(=O)[nH]c1=O [3′-Deoxy-3′-(4-phenyl-1H-1,2,3-triazol-1-yl)thymidine] | 0.79
CCCc1cn([C@H]2C[C@H](n3cc(C)c(=O)[nH]c3=O)O[C@@H]2CO)nn1 [3′-Deoxy-3′-(4-propyl-1H-1,2,3-triazol-1-yl)thymidine] | 0.79
Cc1cn([C@H]2C[C@H](n3cc(C(C)(C)C)nn3)[C@@H](CO)O2)c(=O)[nH]c1=O [3′-Deoxy-3′-[4-(2-methyl-2-propanyl)-1H-1,2,3-triazol-1-yl]thymidine] | 0.61
Cc1cn([C@H]2C[C@H](n3cc(CCc4ccccc4)nn3)[C@@H](CO)O2)c(=O)[nH]c1=O [3′-Deoxy-3′-[4-(2-phenylethyl)-1H-1,2,3-triazol-1-yl]-thymidine] | 0.74
Cc1cn([C@H]2C[C@H](n3cc(-c4ccccn4)nn3)[C@@H](CO)O2)c(=O)[nH]c1=O [3′-Deoxy-3′-[4-(2-pyridinyl)-1H-1,2,3-triazol-1]-yl]thymidine] | 0.84
Cc1cn([C@H]2C[C@H](n3cc(-c4ccc(Cl)c(Cl)c4)nn3)[C@@H](CO)O2)c(=O)[nH]c1=O [3′-Deoxy-3′-[4-(3,4-dichlorophenyl)-1H-1,2,3-triazol-1-yl]-thymidine] | 0.86
Cc1cn([C@H]2C[C@H](n3cc(-c4ccc(F)cc4)nn3)[C@@H](CO)O2)c(=O)[nH]c1=O [3′-Deoxy-3′-[4-(4-fluorophenyl)-1H-1,2,3-triazol-1-yl]-thymidine] | 0.66
Cc1cn([C@H]2C[C@H](n3cc(-c4ccc(Cl)cc4)nn3)[C@@H](CO)O2)c(=O)[nH]c1=O [3′-[4-(4-Chlorophenyl)-1H-1,2,3-triazol-1-yl]-3′-deoxythymidine] | 0.67
Cc1cn([C@H]2C[C@H](n3cc(CC4CCCC4)nn3)[C@@H](CO)O2)c(=O)[nH]c1=O [3′-[4-(Cyclopentylmethyl)-1H-1,2,3-triazol-1-yl]-3′-deoxythymidine] | 0.66
Cc1cn(CCCCNC(=O)C(c2ccccc2)c2ccccc2)c(=O)[nH]c1=O [N-[4-(5-Methyl-2,4-dioxo-3H-pyrimidin-1-yl)butyl]-2,2-diphenylacetamide] | 0.79
Cc1cn(CCCCNC(=O)Cc2ccc(-c3ccccc3)cc2)c(=O)[nH]c1=O [N-[4-(5-Methyl-2,4-dioxo-3H-pyrimidin-1-yl)butyl]-2-(4-phenylphenyl)acetamide] | 0.67
Cc1cn(CCCCNC(=O)Cc2ccc3ccccc3c2)c(=O)[nH]c1=O [N-[4-(5-Methyl-2,4-dioxo-3H-pyrimidin-1-yl)butyl]-2-(naphthalen-2-yl)acetamide] | 0.75
Cc1cn(CCCCNC(=O)C2c3ccccc3-c3ccccc32)c(=O)[nH]c1=O [N-[4-(5-Methyl-2,4-dioxo-3H-pyrimidin-1-yl)butyl]-9H-fluorene-9-carboxamide] | 0.58
